{"source": "patent US20250129012A1", "about": "“ANTI-INFLAMMATORY AND ANALGESIC COMPOUNDS AND USE THEREOF” (JIANGSU ATOM BIOSCIENCE AND PHARMACEUTICAL CO., LTD., priority 2021, published 2025)", "system": "gouty arthritis rats (sodium urate, right ankle and knee joint cavities)", "experiment": "Pharmacodynamics experiment B on gouty arthritis rats: ankle swelling rate", "type": "in vivo, SD rats", "conditions": "for change in vivo at 0.6 mg/kg / change in vivo at 1.2 mg/kg: Rattus norvegicus, po, read-out: Swelling rate (ankle)", "in_short": "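Male SD rats dosed by gavage at 0.6 mg/kg (0.5% CMC-Na suspension) daily for 7 days before and 3 days after injection of 0.2 mL sodium urate solution into right ankle and knee joints. Ankle circumference measured before and 2-48 h after modeling; swelling rate = swelling degree/baseline ×100%, mean values.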", "note": "Like-named read-outs stand apart in the source and are kept apart here.", "data": [{"smiles": "COc1cc2c(c(OC)c1OC)-c1ccc(OC)c(=O)cc1[C@@H](NC(C)=O)CC2", "note": "[colchicine, reference compound]", "values": [{"measurement": "change in vivo at 0.6 mg/kg", "setting": "2 h", "value": 10.5, "unit": "%"}, {"measurement": "change in vivo at 1.2 mg/kg", "setting": "2 h", "value": 8.97, "unit": "%"}, {"measurement": "change in vivo at 0.6 mg/kg", "setting": "4 h", "value": 15.7, "unit": "%"}, {"measurement": "change in vivo at 1.2 mg/kg", "setting": "4 h", "value": 14.9, "unit": "%"}, {"measurement": "change in vivo at 0.6 mg/kg", "setting": "8 h", "value": 20.6, "unit": "%"}, {"measurement": "change in vivo at 1.2 mg/kg", "setting": "8 h", "value": 17.2, "unit": "%"}, {"measurement": "change in vivo at 0.6 mg/kg", "setting": "10 h", "value": 23.4, "unit": "%"}, {"measurement": "change in vivo at 1.2 mg/kg", "setting": "10 h", "value": 19.4, "unit": "%"}, {"measurement": "change in vivo at 0.6 mg/kg", "setting": "24 h", "value": 24.4, "unit": "%"}, {"measurement": "change in vivo at 1.2 mg/kg", "setting": "24 h", "value": 19.8, "unit": "%"}, {"measurement": "change in vivo at 0.6 mg/kg", "setting": "48 h", "value": 12.1, "unit": "%"}, {"measurement": "change in vivo at 1.2 mg/kg", "setting": "48 h", "value": 9.29, "unit": "%"}, {"measurement": "Ankle swelling rate versus model group, in words", "setting": "compounds 0.6 mg/kg, colchicine 0.6 and 1.2 mg/kg", "value": "significantly (P<0.01) reduced"}]}]}
